Source: PMC8026785, “The pharmacokinetics of [^18F]UCB-H revisited in the healthy non-human primate brain” (EJNMMI Research, 2021)
Values joined by “and” are separate entries in the source; they are usually repeats but may differ in a detail not shown here. Equal values may be shown once.

Biological target: T1, SV2A (Macaca fascicularis, UniProt Q4R4X3)
T1 construct: The current study evaluates [^18F]UCB-H pharmacokinetics in healthy NHPs; from tissue; host or cells: brain of living healthy cynomolgus monkeys (in vivo PET)
Assay: Brain PET kinetic modelling (1TCM, 2TCM, 2TCM-c, Logan), test-retest
Format: in vivo, cynomolgus monkeys (Macaca fascicularis)
Description: All four non-human primates (NHP) underwent a 2-h (2 h) test and retest PET scan; two NHP underwent an additional 4-h (4 h) retest PET scan. Three NHP underwent one 4-h (4 h) displacement PET scan. Arterial blood sampling was performed during test and retest scans with PET imaging spaced by at least 3 weeks between each scan. To this end, the femoral artery opposite to the saphenous vein used for radioligand injection was cannulated. For the 2-h (2 h) scans, we collected in total 28 blood samples of 1 mL: 16 samples during the first 5 min followed by […] every 5 min and […] every 10 min. For the 4 h scans, we collected an additional 6 samples every 20 min during the last two hours (34 samples in total). Larger samples (2 – 3 mL) were collected at 5, 15, 30, 60, 90, 120 min (2 h) and at 180, 240 min (4 h) for metabolite analysis. Displacement of [^18F]UCB-H was done by intravenous (IV) administration 90 min after [^18F]UCB-H injection of a bolus of 30 mg/kg LEV, or of 80 µg/kg (≈250 nmol/kg) or 5 mg/kg (≈15 µmol/kg) of cold [^19F]-UCB-H. Full experimental design of all NHP is outlined in Additional file 1: Table 1.
PET imaging was performed on the microPET FOCUS220 (Siemens) under standard anesthesia and monitoring procedures. Data acquisition started with the IV bolus injection of [^18F]UCB-H (32.9 ± 1.0 MBq/kg, 0.35 ± 0.07 µg/kg). Dynamic PET images were reconstructed using standard OSEM-2D algorithms while correcting for radioactive decay, scatter, attenuation and detectors inhomogeneity, which were measured prior to PET scanning using respectively ^57Co and ^68Ge external sources.
PET image analysis was performed using PMOD software version 3.8 (PMOD Technologies Ltd., Zurich, Suisse). After individual co-registration of PET-MR images, a cynomolgus atlas published by Ballanger and coworkers was normalized to PET images to extract time activity curves in different brain regions. Volumes of interest (VOI) were cerebral white matter (16.7 cm^3), striatum (0.24 cm^3), thalamus (0.89 cm^3), cerebellum (3.83 cm^3), frontal—(2.50 cm^3), parietal—(5.35 cm^3), and temporal (8.22 cm^3) cortex, and whole brain (72.2 cm^3) as a composite region of all regions in the atlas. [^18F]UCB-H pharmacokinetics were evaluated by analyzing the time activity curves of the test- and retest scans using 1- and 2-tissue compartment models (unconstrained and constrained with global K1/k2 coupled fit across all regions, further referred to as 2TCM and 2TCM-c), and Logan graphical analysis with a fixed t* at 60 min [33] using the arterial plasma input function corrected for radio-metabolites to derive the volume of distribution in each region. Percentage standard error (%SE) was estimated from the theoretical parameter covariance matrix. Only reliable estimates (%SE less than 25%) were included in the current analyses. For the three drug studies, percent displacement of the total activity in the whole brain was estimated relative to an average baseline constructed from the two 4 h baseline studies. Briefly, Standardized Uptake Value (SUV) time activity curves (TACs) were calculated for the two baseline and the three displacement studies. Then, each curve was normalized to the SUV at t = 90 min, corresponding to the timeframe immediately before the administration of the drugs in the displacement studies. Baseline curves were averaged and the percent displacement of total activity was calculated as (baseline-displacement)/baseline at a given time post drug administration (see “Results”).
Statistical analysis was performed using R software (version 3.3.1.). Plasma, intact parent fraction and time activity curves were statistically compared between subjects using a one-factor variance analysis. Absolute Test–Retest variability (aTRV) of PET quantification parameters was calculated as ABS(test—retest) / AVERAGE(test, retest). […]

[1] = Parietal Cortex, Retest, individual NHP
[2] = Parietal Cortex, Test, individual NHP
[3] = Striatum, Retest, individual NHP

T1 sequence (Q4R4X3 whole entry): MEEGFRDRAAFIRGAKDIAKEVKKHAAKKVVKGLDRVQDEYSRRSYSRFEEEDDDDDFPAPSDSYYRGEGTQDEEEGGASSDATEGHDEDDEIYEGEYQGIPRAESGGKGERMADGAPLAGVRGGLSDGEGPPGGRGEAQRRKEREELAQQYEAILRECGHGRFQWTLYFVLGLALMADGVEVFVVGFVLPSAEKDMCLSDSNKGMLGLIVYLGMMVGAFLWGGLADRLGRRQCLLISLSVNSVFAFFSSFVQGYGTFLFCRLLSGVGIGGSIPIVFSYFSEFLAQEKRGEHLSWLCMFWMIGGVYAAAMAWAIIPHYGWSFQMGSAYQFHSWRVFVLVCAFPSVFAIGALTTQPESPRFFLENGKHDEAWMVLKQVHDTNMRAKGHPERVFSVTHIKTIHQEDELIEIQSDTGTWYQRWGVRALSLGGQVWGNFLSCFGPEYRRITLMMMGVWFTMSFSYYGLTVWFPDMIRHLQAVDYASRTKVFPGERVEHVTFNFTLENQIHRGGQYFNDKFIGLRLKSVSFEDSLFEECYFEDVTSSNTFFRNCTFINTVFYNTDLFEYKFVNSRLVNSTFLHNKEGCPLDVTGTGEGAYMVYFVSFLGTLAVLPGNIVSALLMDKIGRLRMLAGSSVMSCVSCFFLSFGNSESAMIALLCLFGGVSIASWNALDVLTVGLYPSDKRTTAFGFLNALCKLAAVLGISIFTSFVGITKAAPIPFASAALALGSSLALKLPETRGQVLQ

O=C1C[C@H](c2cc(F)c(F)c(F)c2)CN1Cc1ccncc1[18F] [[^18F]UCB-H]
VT (2TCM) (Frontal cortex, Retest, mean): 13.1 mL/cm^3 | VT (2TCM-c) (Frontal cortex, Retest, mean): 14.7 mL/cm^3 | VT (Logan (t* = 60)) (Frontal cortex, Retest, mean): 14.8 mL/cm^3 | k3/k4 (BPND) (2TCM-c) (Frontal cortex, Retest, mean): 1.32 | VT (1TCM) (Frontal cortex, Test, mean): 13.8 mL/cm^3 | VT (2TCM) (Frontal cortex, Test, mean): 16.3 mL/cm^3 | VT (2TCM-c) (Frontal cortex, Test, mean): 14.8 mL/cm^3 | VT (Logan (t* = 60)) (Frontal cortex, Test, mean): 15.0 mL/cm^3 | k3/k4 (BPND) (2TCM-c) (Frontal cortex, Test, mean): 1.25 | ICC of VT, overall (Logan): ~ 0.6 | aTRV of VT, overall (Logan): ~ 11% and ~ 12% | aTRV of VT (MA1, data not shown): ~ 11% | K1 (2TCM) [1]: 0.42 ml/cm^3 /min and 0.32 ml/cm^3 /min and 0.38 ml/cm^3 /min and 0.33 ml/cm^3 /min | K1 (2TCM-c) [1]: 0.44 ml/cm^3 /min and 0.33 ml/cm^3 /min and 0.38 ml/cm^3 /min and 0.34 ml/cm^3 /min | K1/k2 (2TCM) [1]: 13.02 ml/cm^3 and 14.99 ml/cm^3 | K1/k2 (2TCM-c) [1]: 4.64 ml/cm^3 and 9.07 ml/cm^3 and 10.70 ml/cm^3 and 7.25 ml/cm^3 | VT (1TCM) [1]: 13.99 ml/cm^3 and 16.57 ml/cm^3 and 15.57 ml/cm^3 and 13.26 ml/cm^3 | VT (2TCM) [1]: 13.98 ml/cm^3 and 13.26 ml/cm^3 | VT (2TCM-c) [1]: 14.02 ml/cm^3 and 18.28 ml/cm^3 and 18.66 ml/cm^3 and 13.26 ml/cm^3 | VT (Logan) [1]: 13.75 ml/cm3 and 19.72 ml/cm3 and 15.91 ml/cm3 and 13.60 ml/cm3 | k3/k4 (2TCM-c) [1]: 2.02 and 1.04 and 0.78 and 0.83 | K1 (2TCM) [2]: 0.22 ml/cm^3 /min and 0.40 ml/cm^3 /min and 0.41 ml/cm^3 /min and 0.18 ml/cm^3 /min | K1 (2TCM-c) [2]: 0.23 ml/cm^3 /min and 0.41 ml/cm^3 /min and 0.42 ml/cm^3 /min and 0.18 ml/cm^3 /min | K1/k2 (2TCM) [2]: 7.68 ml/cm^3 and 12.37 ml/cm^3 and 12.79 ml/cm^3 and 13.88 ml/cm^3 | K1/k2 (2TCM-c) [2]: 4.35 ml/cm^3 and 8.22 ml/cm^3 and 10.99 ml/cm^3 and 7.86 ml/cm^3 | VT (1TCM) [2]: 10.65 ml/cm^3 and 17.46 ml/cm^3 and 14.10 ml/cm^3 and 15.09 ml/cm^3 | VT (2TCM) [2]: 12.22 ml/cm^3 and 18.71 ml/cm^3 | VT (2TCM-c) [2]: 11.12 ml/cm^3 and 17.78 ml/cm^3 and 15.03 ml/cm^3 and 17.47 ml/cm^3 | VT (Logan) [2]: 11.83 ml/cm3 and 18.19 ml/cm3 and 15.28 ml/cm3 and 16.49 ml/cm3 | k3/k4 (2TCM) [2]: 0.59 | k3/k4 (2TCM-c) [2]: 1.56 and 1.38 and 0.37 and 1.00 | ICC of 2TCM-c VT (Parietal cortex): 0.38 | ICC of Logan (t* = 60) VT (Parietal cortex): 0.75 | aTRV of 2TCM-c VT (Parietal cortex): 19% | aTRV of Logan (t* = 60) VT (Parietal cortex): 12% | VT (1TCM) (Parietal cortex, Retest, mean): 14.8 mL/cm^3 | VT (2TCM) (Parietal cortex, Retest, mean): 13.6 mL/cm^3 | VT (2TCM-c) (Parietal cortex, Retest, mean): 16.1 mL/cm^3 | VT (Logan (t* = 60)) (Parietal cortex, Retest, mean): 15.7 mL/cm^3 | k3/k4 (BPND) (2TCM-c) (Parietal cortex, Retest, mean): 1.17 | VT (1TCM) (Parietal cortex, Test, mean): 14.3 mL/cm^3 | VT (2TCM) (Parietal cortex, Test, mean): 15.5 mL/cm^3 | VT (2TCM-c) (Parietal cortex, Test, mean): 15.4 mL/cm^3 | VT (Logan (t* = 60)) (Parietal cortex, Test, mean): 15.4 mL/cm^3 | k3/k4 (BPND) (2TCM-c) (Parietal cortex, Test, mean): 1.08 | ICC of Logan (t* = 60) VT (Striatum): 0.67 | aTRV of 2TCM-c VT (Striatum): 12% | aTRV of Logan (t* = 60) VT (Striatum): 11% | K1 (2TCM) [3]: 0.41 ml/cm^3 /min and 0.54 ml/cm^3 /min and 0.44 ml/cm^3 /min and 0.46 ml/cm^3 /min | K1 (2TCM-c) [3]: 0.42 ml/cm^3 /min and 0.58 ml/cm^3 /min and 0.46 ml/cm^3 /min and 0.47 ml/cm^3 /min | K1/k2 (2TCM) [3]: 11.34 ml/cm^3 and 15.36 ml/cm^3 | K1/k2 (2TCM-c) [3]: 7.25 ml/cm^3 and 4.64 ml/cm^3 and 9.07 ml/cm^3 and 10.70 ml/cm^3 | VT (1TCM) [3]: 13.04 ml/cm^3 and 14.96 ml/cm^3 and 15.52 ml/cm^3 and 15.75 ml/cm^3 | VT (2TCM) [3]: 13.09 ml/cm^3 and 15.01 ml/cm^3 | VT (2TCM-c) [3]: 13.08 ml/cm^3 and 15.06 ml/cm^3 and 17.64 ml/cm^3 and 15.26 ml/cm^3 | VT (Logan) [3]: 13.39 ml/cm3 and 14.93 ml/cm3 and 18.31 ml/cm3 and 16.14 ml/cm3 | k3/k4 (2TCM-c) [3]: 0.80 and 2.25 and 0.97 and 0.45 | VT (1TCM) (Striatum, Retest, mean): 14.8 mL/cm^3 | VT (2TCM) (Striatum, Retest, mean): 14.1 mL/cm^3 | VT (2TCM-c) (Striatum, Retest, mean): 15.3 mL/cm^3
